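The compound was tested at five concentrations on cells cultured in 96-well plates, with a 48-hour exposure period. GI50 marks 50% less growth.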 The source made the active and inactive calls. No stated cut-off is given here; in the data, active = GI50 up to about 1.1 µM and inactive = higher.
Key:
Test in all cases: DTP human tumour cell line panel, 48 h
[1] = test system: 786-0
[2] = test system: A498
[3] = test system: A549
[4] = test system: ACHN
[5] = test system: BT-549
[6] = test system: CCRF-CEM
[7] = test system: COLO 205
[8] = test system: DU-145
[9] = test system: EKVX
[10] = test system: HCC 2998
[11] = test system: HCT-116
[12] = test system: HCT-15
[13] = test system: HL-60
[14] = test system: HOP-62
[15] = test system: HOP-92
[16] = test system: HT-29
[17] = test system: Hs-578T
[18] = test system: IGROV-1
[19] = test system: K562
[20] = test system: KM12
[21] = test system: LOX IMVI
[22] = test system: M14
[23] = test system: MCF7
[24] = test system: MDA-MB-231
[25] = test system: MDA-MB-435
[26] = test system: MDA-N
[27] = test system: MOLT-4
[28] = test system: NCI-H226
[29] = test system: NCI-H23
[30] = test system: NCI-H460
[31] = test system: NCI-H522
[32] = test system: NCI/ADR-RES
[33] = test system: OVCAR-3
[34] = test system: OVCAR-8
[35] = test system: PC-3
[36] = test system: RPMI-8226
[37] = test system: RXF 393
[38] = test system: SF-268
[39] = test system: SF-295
[40] = test system: SK-MEL-28
[41] = test system: SK-MEL-2
[42] = test system: SK-MEL-5
[43] = test system: SK-OV-3
[44] = test system: SN12C
[45] = test system: SNB-19
[46] = test system: SR
[47] = test system: SW-620
[48] = test system: T47D
[49] = test system: TK-10
[50] = test system: U-251
[51] = test system: UACC-257
[52] = test system: UACC-62
[53] = test system: UO-31

With Cc1nc(-c2cc3cc(Cl)ccc3oc2=O)cc2c1c(=O)oc1ccc(Cl)cc12 the GI50 [1] was > 100 µM (inactive), the GI50 [2] was > 100 µM (inactive) and the GI50 [3] was > 100 µM (inactive). The GI50 [4] was > 100 µM (inactive), the GI50 [5] was > 100 µM (inactive) and the GI50 [6] was > 100 µM (inactive). The GI50 [7] was > 100 µM (inactive), the GI50 [8] was > 100 µM (inactive) and the GI50 [9] was > 100 µM (inactive). The GI50 [10] was > 100 µM (inactive), the GI50 [11] was > 100 µM (inactive) and the GI50 [12] was > 100 µM. The GI50 [13] was > 100 µM (inactive), the GI50 [14] was > 100 µM (inactive) and the GI50 [15] was > 100 µM (inactive). The GI50 [16] was > 100 µM (inactive), the GI50 [17] was 72.3 µM (inactive) and the GI50 [18] was > 100 µM (inactive). For the same molecule, the GI50 [19] was > 100 µM (inactive), the GI50 [20] was > 100 µM (inactive) and the GI50 [21] was > 100 µM (inactive). For the same molecule, the GI50 [22] was > 100 µM (inactive), the GI50 [23] was > 100 µM (inactive) and the GI50 [24] was > 100 µM (inactive). The GI50 [25] was > 100 µM (inactive), the GI50 [26] was > 100 µM (inactive) and the GI50 [27] was > 100 µM (inactive). For the same molecule, the GI50 [28] was > 100 µM (inactive), the GI50 [29] was > 100 µM (inactive) and the GI50 [30] was > 100 µM (inactive). The GI50 [31] was 70.3 µM (inactive), the GI50 [32] was > 100 µM (inactive) and the GI50 [33] was > 100 µM (inactive). For the same molecule, the GI50 [34] was > 100 µM (inactive), the GI50 [35] was > 100 µM (inactive) and the GI50 [36] was > 100 µM (inactive). For the same molecule, the GI50 [37] was > 100 µM (inactive), the GI50 [38] was > 100 µM (inactive) and the GI50 [39] was > 100 µM (inactive). For the same molecule, the GI50 [40] was > 100 µM (inactive), the GI50 [41] was > 100 µM (inactive) and the GI50 [42] was > 100 µM (inactive). For the same molecule, the GI50 [43] was > 100 µM (inactive), the GI50 [44] was > 100 µM (inactive) and the GI50 [45] was > 100 µM (inactive). The GI50 [46] was > 100 µM (inactive), the GI50 [47] was > 100 µM (inactive) and the GI50 [48] was > 100 µM (inactive). The GI50 [49] was > 100 µM (inactive), the GI50 [50] was > 100 µM (inactive) and the GI50 [51] was > 100 µM (inactive). The GI50 [52] was > 100 µM (inactive) and the GI50 [53] was > 100 µM (inactive).

— ChEMBL document CHEMBL1201862, “PubChem BioAssay data set” (2004)
